Assay [1] relates to antigen-specific (RBD peptide #9) Proliferative T cell response. Also noted: species or system Mice. The note with it: mouse, in vivo.
For assay [2], the system named is cytokine response to RBD Peptide #9 (IL6, IFNg, TNF, IL17, IL 10). The arrangement: species or system Mice. The note with it: mouse, in vivo.
The subject of assay [3] is myeloid (GR1+CD11b+) cells and lymphoid (CD8+) cells. Briefly: FACS analysis of myeloid and lymphoid cells at higher DPCA doses. The assay is classed as in vivo, mice. On the procedure: To explore what is happening at higher DPCA doses and why they may be inhibitory, we tested the effects of different concentrations of DPCA on myeloid (GR1+CD11b+) cells and lymphoid (CD8+) cells. […] Also, the number of GR1+CD11b+myeloid cells is much higher. Within this population of myeloid cells are cells that can suppress T cells.
Additionally, cells were immunized with 50 ug of DPCA and compared to an untreated control. The number of cell in each was determined by FACS analysis. […] (See upper panels showing scatter plots with an increased number of cells in treated cells). An analysis of myeloid cell markers GR1 and CD11b was determined in the control and DPCA treated cells. […] (See lower panels)
On the technique in general: A flow cytometer gives signals particle by particle.

For assay [4], the system named is Naïve, central memory, and effector T cells (CD4 and CD8). Put plainly: Numbers of naive, central memory and effector memory T cells from lymph nodes and spleen. The assay is classed as in vivo. Conditions: peptide 9 and 10 ug or 25 ug of DPCA, FIG. 6. On the procedure: Next, three populations of T cells (Naïve, central memory, and effector T cells) from lymph nodes and spleens were treated with peptide 9 and 10 ug of DPCA or 25 ug of DPCA. An untreated control group and a control group treated with PBS were also tested.

The subject of the next assay is splenic T cells. Put plainly: Recall response of splenic T cells to peptide #5-palmitic acid, CTFR proliferation dye and FACS. The assay is classed as in vivo, Mice. Conditions: immunized subcutaneously with peptide #5-palmitic acid CFA + 10 ug; 14 days later; FIG. 7. On the procedure:
Mice were now immunized with peptide 5 and T cells analyzed for proliferation and by FACS analysis. (FIG. 7) Mice were immunized subcutaneously with peptide #5-palmitic acid CFA mixture with and without 10 ug of 1,4-DPCA. 14 days later, splenic T cells were isolated and co-cultured with irradiated feeders in a ratio of 400k:100k to assess recall responses to peptide #5-palmitic acid. T cells from unimmunized mice were used as control. Only T cells were stained with CTFR proliferation dye in order to ensure detection of specific T cell responses.
In upper FIG. 7 is the FACS flow cytometry plot, where the labelled cells are T cells. […] Below this, is the analyzed proliferation data, where the yellow line is immunized+10 ug of DPCA was given to mice, the grey line is immunized only, the orange line is control, unimmunized but stimulated in culture, and the blue line is control, unstimulated in culture.

Each structure is given as a SMILES string.

With `O=C(O)c1c[nH]c2c(ccc3cccnc32)c1=O` [1,4-DPCA, 1,4-dihydrophenonthrolin-4-one-3-carboxylic acid], the “antigen-specific (RBD peptide #9) Proliferative T cell response” value in assay [1] is given as “enhances”. In assay [2], the IFNg response entry was “most dramatically affected”; the “cytokine response (IL6, IFNg, TNF, IL17, and IL 10)” value is recorded as “dose-dependent”. The “number of large cells (FACS scatter plots)” value in assay [3] (50 ug of DPCA vs untreated control, FIG. 5) is on record as “increase number of large cells”. For the same compound, the “myeloid cell markers GR1 and CD11b” value in assay [3] (DPCA treated vs untreated control, FIG. 5 lower panels) is reported as “large population of myeloid cells”. Moreover, the “relationship between lymphoid and myeloid cells” value in assay [3] (higher DPCA dosage, FIG. 4) is reported as “Inverse relationship”. Further, in assay [3] (higher DPCA doses, FIG. 4), the “number of CD8+T cells” value was “reduced” and the “number of GR1+CD11b+myeloid cells” value was “much higher”. Also, in assay [4], the “numbers of memory cells (CD4 and CD8)” value is given as “increased numbers”; the “numbers of naïve cells (CD4 and CD8)” value is given as “lower numbers”. Besides, the “T cell proliferation (FACS flow cytometry plot)” value in the assay with splenic T cells is “increased proliferation”.

For the origin of these results see patent US20260102484A1, “ADJUVANTS FOR ENHANCING THE IMMUNE RESPONSE” (priority 2022, published 2026).
